Measured values from paper PMC5694347 (Clinical cancer research : an official journal of the …, 2015).
Marks after values point to notes of the source that are not given here.

Tested on: patients with relapsed and/or refractory lymphoma or MM
Experiment: Safety: adverse events graded by NCI CTCAE version 3.0
Details: for Patients with serious AEs (SAEs): eight patients
[1] = Schedule B, n=17, high-level term

NS(=O)(=O)OC[C@@H]1C[C@@H](n2ccc3c(N[C@H]4CCc5ccccc54)ncnc32)C[C@@H]1O [pevonedistat]
Abdominal discomfort, Grade ≥3 (Schedule B, n=17): 0 n (%) | Anemia, All grades (Schedule B, n=17): 3 (18) n (%) | Anemia, Grade ≥3 (Schedule B, n=17): 1 (6) n (%) | Any AE, All grades (Schedule B, n=17): 17 (100) n (%) | Any AE, Grade ≥3 (Schedule B, n=17): 12 (71) n (%) | Asthenia, All grades (Schedule B, n=17): 3 (18) n (%) | Asthenia, Grade ≥3 (Schedule B, n=17): 0 n (%) | Back pain, All grades (Schedule B, n=17): 4 (24) n (%) | Back pain, Grade ≥3 (Schedule B, n=17): 0 n (%) | Blood alkaline phosphatase increased, All grades (Schedule B, n=17): 1 (6) n (%) | Blood alkaline phosphatase increased, Grade ≥3 (Schedule B, n=17): 0 n (%) | Blood creatinine increased, All grades (Schedule B, n=17): 0 n (%) | Blood creatinine increased, Grade ≥3 (Schedule B, n=17): 0 n (%) | Chills, All grades (Schedule B, n=17): 6 (35) n (%) | Chills, Grade ≥3 (Schedule B, n=17): 0 n (%) | Constipation, All grades (Schedule B, n=17): 5 (29) n (%) | Constipation, Grade ≥3 (Schedule B, n=17): 0 n (%) | Cough, All grades (Schedule B, n=17): 5 (29) n (%) | Cough, Grade ≥3 (Schedule B, n=17): 0 n (%) | Decreased appetite, All grades (Schedule B, n=17): 10 (59) n (%) | Decreased appetite, Grade ≥3 (Schedule B, n=17): 0 n (%) | Dehydration, All grades (Schedule B, n=17): 3 (18) n (%) | Dehydration, Grade ≥3 (Schedule B, n=17): 1 (6) n (%) | Diarrhea, All grades (Schedule B, n=17): 8 (47) n (%) | Diarrhea, Grade ≥3 (Schedule B, n=17): 0 n (%) | Dizziness, All grades (Schedule B, n=17): 8 (47) n (%) | Dizziness, Grade ≥3 (Schedule B, n=17): 0 n (%) | Dyspepsia, All grades (Schedule B, n=17): 3 (18) n (%) | Dyspepsia, Grade ≥3 (Schedule B, n=17): 0 n (%) | Dyspnea exertional, All grades (Schedule B, n=17): 3 (18) n (%) | Dyspnea exertional, Grade ≥3 (Schedule B, n=17): 0 n (%) | Dyspnea, All grades (Schedule B, n=17): 4 (24) n (%) | Dyspnea, Grade ≥3 (Schedule B, n=17): 1 (6) n (%) | Fatigue, All grades (Schedule B, n=17): 12 (71) n (%) | Fatigue, Grade ≥3 (Schedule B, n=17): 1 (6) n (%) | Headache, All grades (Schedule B, n=17): 9 (53) n (%) | Headache, Grade ≥3 (Schedule B, n=17): 0 n (%) | Hyperbilirubinemia, All grades (Schedule B, n=17): 5 (29) n (%) | Hyperbilirubinemia, Grade ≥3 (Schedule B, n=17): 1 (6) n (%) | Hypercalcemia, All grades (Schedule B, n=17): 1 (6) n (%) | Hypercalcemia, Grade ≥3 (Schedule B, n=17): 0 n (%) | Hyperkalemia, All grades (Schedule B, n=17): 0 n (%) | Hyperkalemia, Grade ≥3 (Schedule B, n=17): 0 n (%) | Hypomagnesemia, All grades (Schedule B, n=17): 1 (6) n (%) | Hypomagnesemia, Grade ≥3 (Schedule B, n=17): 0 n (%) | Hypophosphatemia, All grades (Schedule B, n=17): 1 (6) n (%) | Hypophosphatemia, Grade ≥3 (Schedule B, n=17): 1 (6) n (%) | Insomnia, All grades (Schedule B, n=17): 4 (24) n (%) | Insomnia, Grade ≥3 (Schedule B, n=17): 0 n (%) | Muscle spasms, All grades (Schedule B, n=17): 10 (59) n (%) | Muscle spasms, Grade ≥3 (Schedule B, n=17): 1 (6) n (%) | Myalgia, All grades (Schedule B, n=17): 10 (59) n (%) | Myalgia, Grade ≥3 (Schedule B, n=17): 0 n (%) | Nausea, All grades (Schedule B, n=17): 13 (76) n (%) | Nausea, Grade ≥3 (Schedule B, n=17): 0 n (%) | Neutropenia, All grades (Schedule B, n=17): 2 (12) n (%) | Neutropenia, Grade ≥3 (Schedule B, n=17): 2 (12) n (%) | Pain in extremity, All grades (Schedule B, n=17): 5 (29) n (%) | Pain in extremity, Grade ≥3 (Schedule B, n=17): 0 n (%) | Pain, All grades (Schedule B, n=17): 5 (29) n (%) | Pain, Grade ≥3 (Schedule B, n=17): 1 (6) n (%) | Paresthesia, All grades (Schedule B, n=17): 5 (29) n (%) | Paresthesia, Grade ≥3 (Schedule B, n=17): 0 n (%) | Peripheral edema, All grades (Schedule B, n=17): 3 (18) n (%) | Peripheral edema, Grade ≥3 (Schedule B, n=17): 0 n (%) | Pneumonia, All grades (Schedule B, n=17): 3 (18) n (%) | Pneumonia, Grade ≥3 (Schedule B, n=17): 2 (12) n (%) | Productive cough, All grades (Schedule B, n=17): 3 (18) n (%) | Productive cough, Grade ≥3 (Schedule B, n=17): 0 n (%) | Pyrexia, All grades (Schedule B, n=17): 8 (47) n (%) | Pyrexia, Grade ≥3 (Schedule B, n=17): 1 (6) n (%) | Sinus tachycardia, All grades (Schedule B, n=17): 3 (18) n (%) | Sinus tachycardia, Grade ≥3 (Schedule B, n=17): 0 n (%) | Thrombocytopenia, All grades (Schedule B, n=17): 3 (18) n (%) | Upper respiratory tract infection, All grades (Schedule B, n=17): 3 (18) n (%) | Upper respiratory tract infection, Grade ≥3 (Schedule B, n=17): 1 (6) n (%) | Vision blurred, All grades (Schedule B, n=17): 0 n (%) | Vision blurred, Grade ≥3 (Schedule B, n=17): 0 n (%) | Vomiting, All grades (Schedule B, n=17): 10 (59) n (%) | Vomiting, Grade ≥3 (Schedule B, n=17): 0 n (%) | Weight decreased, All grades (Schedule B, n=17): 3 (18) n (%) | Weight decreased, Grade ≥3 (Schedule B, n=17): 0 n (%) | Thrombocytopenia, Grade ≥3 (Schedule B, n=17, 1 DLT): 1 (6) ^a n (%) | Peripheral neuropathies NEC, All grades [1]: 2 (12) n (%) | Peripheral neuropathies NEC, Grade ≥3 [1]: 0 n (%) | Treatment-related deaths (both schedules): no treatment-related deaths | Peripheral neuropathy rate (overall, both schedules): 11% | Grade ≥3 anemia (schedule A): 19% | Patients who discontinued due to occurrence of an AE (schedule A): 2 n | Patients with SAEs considered related to pevonedistat (schedule A): four | Patients with serious AEs (SAEs) (schedule A): 30% | Grade ≥3 neutropenia (schedule B): 12% | Grade ≥3 pneumonia (schedule B): 12% | Patients who discontinued due to occurrence of an AE (schedule B): 1 n | Patients with serious AEs (SAEs) (schedule B): 47%
